Legend:
[1] = test system: HCT-116; test: Antiproliferative activity against human HCT-116 cells assessed as reduction in cell viability incubated for 48 hrs by MTT assay; assay type: functional, cell-based; details: HCT-116, 48 h
[2] = test system: SW480; test: Antiproliferative activity against human SW480 cells assessed as reduction in cell viability incubated for 48 hrs by MTT assay; assay type: functional, cell-based; details: SW480, 48 h

SMILES	IC50 [1] [µM]	IC50 [2] [µM]
CCCCCCCCC[C@H](CCOS(C)(=O)=O)n1cnc2c(Cl)ncnc21	9.48	9.72
CCCCCC(CCO)n1cnc2c(N)ncnc21 (racemic)	> 50	> 50
CCCCCCCCC[C@H](CCCl)n1cnc2c(Cl)ncnc21	9.58	3.18
CCCCCCCCCCCC(CCO)n1cnc2c(N(C)C)ncnc21 (racemic)	12	11.8
CCCCCCCC(CCO)n1cnc2c(OC)ncnc21 (racemic)	15.3	23.9
CCCCCC(CCO)n1cnc2c(N)nc(Cl)nc21 (racemic)	> 50	> 50
C=C(CO)C(CCCCCCCCC)n1cnc2c(Cl)ncnc21 (racemic)	> 50	27.6
CCCCCC(CCO)n1cnc2c(OC)ncnc21 (racemic)	> 50	> 50
CCCCCCCCCC(CCO)n1cnc2c(Cl)nc(Cl)nc21 (racemic)	32.6	36.3
CCCCCCCCCCC(CCO)n1cnc2c(Cl)ncnc21 (racemic)	4.93	3.16
CCCCCCCC(CCO)n1cnc2c(NC)ncnc21 (racemic)	12.5	15.3
CC(CCO)n1cnc2c(Cl)nc(F)nc21 (racemic)	19.8	16.8
OCCC(COCc1ccccc1)n1cnc2c(Cl)ncnc21 (racemic)	> 50	> 50
CCCCCCCC(CCO)n1cnc2c(Cl)nc(Cl)nc21 (racemic)	12.8	13.6
CCCCCCC[C@H](CCO)n1cnc2c(Cl)ncnc21	2.67	2.93
CCCCCCCCCC(CCO)n1cnc2c(N)nc(Cl)nc21 (racemic)	14.8	12.2
CCCCC(CCO)n1cnc2c(Cl)nc(Cl)nc21 (racemic)	15.5	30.9
CCCCCC(CCO)n1cnc2cncnc21 (racemic)	> 50	> 50
C=C(CO)C(CCCCC)n1cnc2c(Cl)ncnc21 (racemic)	> 50	> 50
CCCCCCCCCC(CCOS(C)(=O)=O)n1cnc2c(Cl)ncnc21 (racemic)	5.44	5.39
CCCCCCC[C@@H](CCO)n1cnc2c(Cl)ncnc21	10.7	3.82
CCCCCC(CCO)n1cnc2c(Cl)ncnc21 (racemic)	> 50	> 50
CCCCCCCC(CCO)n1cnc2c(Cl)ncnc21 (racemic)	4.16	3.63

Further lines, results first:

IC50 [1] [µM]	IC50 [2] [µM]	SMILES
> 50	> 50	CCCCCCCC(CCO)n1cnc2c(N)ncnc21 (racemic)
10.5	6.03	CCCCCCCCCC(CCO)n1cnc2c(N)ncnc21 (racemic)
22.4	17.8	CCCCCCCCC(CCO)n1c(Br)nc2c(Cl)ncnc21 (racemic)
> 50	> 50	CCCCC(CCO)n1cnc2c(Cl)ncnc21 (racemic)
9.11	4.79	CCCCCCCCCC(CCOCP(=O)(OCC)OCC)n1cnc2c(Cl)ncnc21 (racemic)
39.8	29.7	OCCCn1cnc2c(Cl)nc(F)nc21
1.65	1.37	CCCCCCCCC(CCO)n1cnc2c(Cl)ncnc21 (racemic)
16.1	14.1	CCCCCCC(CCO)n1c(Br)nc2c(Cl)ncnc21 (racemic)
7.78	8.02	CC(C)(C)[Si](C)(C)OCC(CCO)n1cnc2c(Cl)nc(F)nc21 (racemic)
13.3	11.6	CCCCCCCCCCCC(CCO)n1cnc2c(N)ncnc21 (racemic)
> 50	> 50	CCCCC(CCO)n1cnc2c(N)ncnc21 (racemic)
> 50	> 50	CCCCCCCC(CCO)n1cnc2c(N)nc(Cl)nc21 (racemic)
1.04	1.2	CCCCCCCCCC(CCN=[N+]=[N-])n1cnc2c(Cl)ncnc21 (racemic)

Source: ChEMBL document CHEMBL4811228, “Design, Synthesis, and Activity Evaluation of Novel Acyclic Nucleosides as Potential Anticancer Agents In Vitro and In Vivo” (J Med Chem, 2021)
